Source: patent US7553966B2, “Glucocorticoid mimetics, methods of making them, pharmaceutical compositions, and uses thereof” (Boehringer Ingelheim Pharmaceuticals, Inc., priority 2002, dated 2009)

How the values were obtained:
[1] = target: T1, human glucocorticoid receptor (GR) complex (Homo sapiens, UniProt P04150); assay: Glucocorticoid Receptor Competitive Binding Assay (fluorescence polarization, TAMRA-labeled dexamethasone probe); conditions: qualitative statement; competition with TAMRA-labeled dexamethasone
T1 construct: made in house; host or cells: insect expression system (baculovirus lysate)
T1 sequence (P04150 1-777): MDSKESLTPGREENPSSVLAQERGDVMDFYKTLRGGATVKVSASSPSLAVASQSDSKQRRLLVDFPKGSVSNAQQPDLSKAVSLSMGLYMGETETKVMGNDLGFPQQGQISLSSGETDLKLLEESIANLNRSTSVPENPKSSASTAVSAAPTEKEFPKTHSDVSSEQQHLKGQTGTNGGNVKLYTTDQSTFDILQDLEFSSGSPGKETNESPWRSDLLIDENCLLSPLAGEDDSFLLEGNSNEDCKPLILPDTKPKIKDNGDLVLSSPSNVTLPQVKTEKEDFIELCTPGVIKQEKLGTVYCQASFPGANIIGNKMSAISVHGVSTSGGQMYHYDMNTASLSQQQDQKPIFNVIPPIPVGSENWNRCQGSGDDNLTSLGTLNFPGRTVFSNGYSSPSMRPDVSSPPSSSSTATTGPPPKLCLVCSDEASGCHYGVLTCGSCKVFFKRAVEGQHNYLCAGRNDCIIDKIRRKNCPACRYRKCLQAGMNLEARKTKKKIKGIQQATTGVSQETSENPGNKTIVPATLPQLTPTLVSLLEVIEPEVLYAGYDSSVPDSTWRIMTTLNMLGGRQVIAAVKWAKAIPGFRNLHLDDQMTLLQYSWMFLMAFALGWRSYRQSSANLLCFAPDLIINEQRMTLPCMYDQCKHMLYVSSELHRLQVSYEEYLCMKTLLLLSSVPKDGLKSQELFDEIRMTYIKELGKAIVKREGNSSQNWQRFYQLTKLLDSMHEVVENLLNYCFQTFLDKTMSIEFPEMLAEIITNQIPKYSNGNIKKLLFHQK
Method in brief: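 Competition with TAMRA-dexamethasone for a human GR complex expressed in insect cells, read by fluorescence polarization. Buffer was 10 mM TES, 50 mM KCl, 20 mM Na2MoO4, 1.5 mM EDTA, 0.04% CHAPS, 10% glycerol, 1 mM DTT, pH 7.4.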

glucocorticoid receptor = assay: Glucocorticoid Receptor Cell Assays (agonist activity in one or more of the above assays); format: cell-based; conditions: qualitative statement; assay not specified
Experimental: B. Glucocorticoid Receptor Cell Assays
1. Induction of Aromatase in Fibroblasts (Cell Assay for Transactivation)
Dexamethasone, a synthetic ligand to the glucocorticoid receptor (GR), induces expression of aromatase in human foreskin fibroblast cells. The activity of aromatase is measured by the conversion of testosterone to estradiol in culture media.
On the day of the experiment, the media in the wells is replaced with fresh media. Cells are treated with test compounds to final concentrations of 10^−5 M to 10^−8 M, and testosterone to a final concentration of 300 ng/mL. Each well has a total volume of 100 μL. Samples are made in duplicates. Control wells include: (a) wells that receive testosterone only, and (b) wells that receive testosterone plus 2 μM of dexamethasone to provide maximum induction of aromatase. Plates are incubated at 37° C. overnight (15 to 18 hours), and supernatants are harvested at the end of incubation. […] The amount of estradiol is inversely proportional to the ELISA signals in each well. The extent of aromatase induction by test compounds is expressed as a relative percentage to dexamethasone. EC50 values of test compounds are derived by non-linear curve fitting.
2. Inhibition of IL-6 Production in Fibroblasts (Cell Assay for Transrepression)
Human foreskin fibroblast cells produce IL-6 in response to stimulation by pro-inflammatory cytokine IL-1.
On the next day, media in the wells is replaced with fresh media. Cells are treated with IL-1 (rhIL-1α, R&D Systems Cat. No. 200-LA) to a final concentration of 1 ng/mL, and with test compounds to final concentrations of 10^−5 M to 10^−8 M, in a total volume of 200 μL per well. Samples are done in duplicates. […] Positive control wells receive IL-1 only and represent maximum (or 100%) amount of IL-6 production. Plates are incubated at 37° C. overnight (15 to 18 hours), and supernatants are harvested at the end of incubation. IL-6 levels in the supernatants are determined by the ELISA kits for IL-6 (MedSystems Diagnostics GmbH, Vienna, Austria, Cat. No. BMS213TEN) according to manufacture's instructions. The extent of inhibition of IL-6 by test compounds is expressed in percentage relative to positive controls. IC50 values of test compounds are derived by non-linear curve fitting.
Evaluation of agonist or antagonist activity of compounds binding to the glucocorticoid receptor may be determined by any of the assays.
3. Modulation of Tyrosine Aminotransferase (TAT) Induction in Rat Hepatoma Cells
Testing of compounds for agonist or antagonist activity in induction of tyrosine aminotransferase (TAT) in rat hepatoma cells.
H4-II-E-C3 cells were incubated overnight in 96 well plates (20,000 cells/100 μL/well) in MEM medium containing 10% heat inactivated FBS and 1% nonessential amino acids. On the next day, cells were stimulated with the indicated concentrations of dexamethasone or test compound (dissolved in DMSO, final DMSO concentration 0.2%) for 18 hours. Control cells were treated with 0.2% DMSO. After 18 hours, the cells were lysed in a buffer containing 0.1% Triton X-100 and the TAT activity was measured in a photometric assay using tyrosine and alpha-ketoglutarate as substrates.
For measuring antagonist activity, the hepatoma cells were pre-stimulated by addition of dexamethasone (concentration ranges from 3×10^−9 M to 3×10^−8 M) shortly before the test compound was applied to the cells.
4. Modulation of MMTV-Luc Induction in HeLa Cells
Testing of compounds for agonist or antagonist activity in stimulation of MMTV-(mouse mammary tumor virus) promoter in HeLa cells.
Cells were cultured overnight in DMEM medium without phenol red, supplemented with 3% CCS (charcoal treated calf serum) and then transferred to 96 well plates (15,000 cells/100 μL/well).

| Structure (SMILES) | activity in the GR binding assay [1] | activity as agonists of the glucocorticoid receptor function in one or more of the above assays (glucocorticoid receptor) |
| --- | --- | --- |
| COc1ccc(Br)cc1C(C)(C)CC(O)(Cc1cc2ccccc2[nH]1)C(F)(F)F (stereo not drawn) [4-(5-Bromo-2-methoxyphenyl)-1,1,1-trifluoro-2-(1H-indol-2-ylmethyl)-4-methylpentan-2-ol] | potent activity | potent agonists |
| CC(C)(CC(O)(Cc1cc2ccccc2[nH]1)C(F)(F)F)c1cccc(C(F)(F)F)c1 (stereo not drawn) [1,1,1-Trifluoro-2-(1H-indol-2-ylmethyl)-4-methyl-4-(3-trifluoromethylphenyl)pentan-2-ol] | potent activity | potent agonists |
| COc1ccc(F)cc1C(C)(C)CC(O)(Cc1cc2ccncc2[nH]1)C1CC1 (stereo not drawn) [2-Cyclopropyl-4-(5-fluoro-2-methoxyphenyl)-4-methyl-1-(1H-pyrrolo[2,3-c]pyridin-2-yl)pentan-2-ol] | potent activity | agonists |
| Cc1cccc(C(C)(C)CC(O)(Cc2cc3ccccc3[nH]2)C(F)(F)F)c1 (stereo not drawn) [1,1,1-Trifluoro-2-(1H-indol-2-ylmethyl)-4-methyl-4-m-tolylpentan-2-ol] | potent activity | potent agonists |
| CC(C)(CC(O)(Cc1ccnc2ccccc12)C(F)(F)F)c1ccccc1 (stereo not drawn) [1,1,1-Trifluoro-4-methyl-4-phenyl-2-quinolin-4-ylmethylpentan-2-ol] | potent activity | potent agonists |
| Cc1ccc(F)cc1C(C)(C)CC(O)(Cc1cc2c(C)cccc2[nH]1)C(F)(F)F (stereo not drawn) [1,1,1-Trifluoro-4-(5-fluoro-2-methylphenyl)-4-methyl-2-(4-methyl-1H-indol-2-ylmethyl)pentan-2-ol] | potent activity | potent agonists |
| COc1cccc(C(C)(C)CC(O)(Cc2cc3c(C)cc(C#N)cc3[nH]2)C(F)(F)F)c1 (stereo not drawn) [2-[2-Hydroxy-4-(3-methoxyphenyl)-4-methyl-2-trifluoromethylpentyl]-4-methyl-1H-indole-6-carbonitrile] | potent activity | potent agonists |
| CC(C)(CC(O)(Cc1ccnc2ccccc12)C(F)(F)F)c1cccc2c1OCC2 (stereo not drawn) [4-(2,3-Dihydrobenzofuran-7-yl)-1,1,1-trifluoro-4-methyl-2-quinolin-4-ylmethylpentan-2-ol] | potent activity | potent agonists |
| COc1cc(F)ccc1C(C)(C)CC(O)(Cc1cc2cnccc2[nH]1)C(F)(F)F (stereo not drawn) [1,1,1-Trifluoro-4-(4-fluoro-2-methoxyphenyl)-4-methyl-2-(1H-pyrrolo[3,2-c]pyridin-2-ylmethyl)pentan-2-ol] | potent activity | potent agonists |
| Cc1cc(C#N)cc2[nH]c(CC(O)(CC(C)(C)c3ccc(F)cc3)C(F)(F)F)cc12 (stereo not drawn) [2-[4-(4-Fluorophenyl)-2-hydroxy-4-methyl-2-trifluoromethylpentyl]-4-methyl-1H-indole-6-carbonitrile] | potent activity | potent agonists |
| COc1ccc(F)cc1C(C)(C)CC(O)(Cc1cc2cc(C#N)ccc2[nH]1)C(F)(F)F (stereo not drawn) [2-[4-(5-Fluoro-2-methoxyphenyl)-2-hydroxy-4-methyl-2-trifluoromethylpentyl]-1H-indole-5-carbonitrile] | potent activity | potent agonists |
| Cc1cccc2[nH]c(CC(O)(CC(C)(C)c3cccc(F)c3)C(F)(F)F)cc12 (stereo not drawn) [1,1,1-Trifluoro-4-(3-fluorophenyl)-4-methyl-2-(4-methyl-1H-indol-2-ylmethyl)pentan-2-ol] | potent activity | potent agonists |
| CC(C)(CC(O)(Cc1cc2cnccc2[nH]1)C(F)(F)F)c1ccccc1 (stereo not drawn) [1,1,1-Trifluoro-4-methyl-4-phenyl-2-(1H-pyrrolo[3,2-c]pyridin-2-ylmethyl)pentan-2-ol] | potent activity | potent agonists |
| CC(C)(CC(O)(Cc1cc2cnccc2[nH]1)C(F)(F)F)c1cc(F)ccc1O (stereo not drawn) [4-Fluoro-2-[4,4,4-trifluoro-3-hydroxy-1,1-dimethyl-3-(1H-pyrrolo[3,2-c]pyridin-2-ylmethyl)butyl]phenol] | potent activity | potent agonists |
| Cc1cc(C#N)cc2[nH]c(CC(O)(CC(C)(C)c3cccc4c3OCC4)C(F)(F)F)cc12 (stereo not drawn) [2-[4-(2,3-Dihydrobenzofuran-7-yl)-2-hydroxy-4-methyl-2-trifluoromethylpentyl]-4-methyl-1H-indole-6-carbonitrile] | potent activity | potent agonists |
| COc1cccc(C(C)(C)CC(O)(Cc2ccnc3ccccc23)C(F)(F)F)c1 (stereo not drawn) [1,1,1-Trifluoro-4-(3-methoxyphenyl)-4-methyl-2-quinolin-4-ylmethylpentan-2-ol] | potent activity | potent agonists |
| COc1ccc(F)cc1C(C)(C)CC(O)(Cc1ccnc2cc(F)ccc12)C(F)(F)F (stereo not drawn) [1,1,1-Trifluoro-4-(5-fluoro-2-methoxyphenyl)-2-(7-fluoroquinolin-4-ylmethyl)-4-methylpentan-2-ol] | potent activity | potent agonists |
| COc1cc(F)ccc1C(C)(C)CC(O)(Cc1ccnc2c1CCCC2)C(F)(F)F (stereo not drawn) [1,1,1-Trifluoro-4-(4-fluoro-2-methoxyphenyl)-4-methyl-2-(5,6,7,8-tetrahydroquinolin-4-ylmethyl)pentan-2-ol] | potent activity | potent agonists |
